Measured values: patent US8603527B2, “Pharmaceutical formulations of a substituted diaminopurine” (Signal Pharmaceuticals, LLC, priority 2010, dated 2013)
Like-named read-outs stand apart in the source and are kept apart here.

Assay: Pharmacokinetics (plasma and urine) of ascending multiple oral doses in healthy volunteers
Format: in vivo, human
Conditions: for Intra-subject CV % of AUC(0-τ) / Intra-subject CV % of Cmax: ANOVA, data from Days 10 and 14; for Vd/F / half-life / AUC(0-inf) / Cmax / concentration at 24 h / Tmax / AUC / CL renal / CL renal at 14 days: both sexes, human, oral; for Vd/F: read-out: Vz/F; for Cmax: read-out: Cmax; for concentration at 24 h: read-out: Ctrough; for AUC: τ = 24 hours (N = 8), read-out: AUC(0-τ); for CL renal / CL renal at 14 days: urine, read-out: CLR (renal clearance of drug)
Text: Subjects: Forty healthy male and female subjects between the ages of 20 and 50 were enrolled in the study. All subjects were in good health as determined by a medical history, physical examination, 12-lead ECG, serum biochemistry, hematology, urinalysis and virology. Subjects were not permitted to take any prescribed medication within 30 days or non-prescribed medication within 7 days of the first dose administration.
Study Design: This study was a randomized, double-blind, placebo-controlled, ascending-dose trial to evaluate the safety, tolerability and pharmacokinetics (PK) of multiple oral doses of Compound I. Subjects were enrolled into 1 of the 4 cohorts, 10 subjects per cohort (active:placebo=8:2). Subjects received a multiple oral dose of 25, 50, 100, or 200 mg unformulated Compound I in a capsule, or matching placebo, once daily (QD) for 14 days.
Assessments: Safety and tolerability were assessed by adverse event (AE) monitoring, clinical laboratory testing, vital sign measurement, 12-lead ECG measurement, concomitant medication assessment, and physical examination. Blood and urine samples were collected to assess the PK profile of Compound I and the S-cis isomer of Compound I. Blood samples (˜5 mL) for plasma PK analysis were collected in K2-EDTA vacutainer tubes to yield approximately 2 mL of plasma at each of the following time points: (i) Day 1: before dosing, and 0.25, 0.5, 1, 1.5, 2, 2.5, 3, 4, 6, 8, 10, 12, 16, and 24 hours after dosing; (ii) Day 3 to Day 9: before dosing; (iii) Day 10: before dosing, and 0.25, 0.5, 1, 1.5, 2, 2.5, 3, 4, 6, 8, 10, 12, and 16 hours after dosing; (iv) Day 11 to Day 13: before dosing; (v) Day 14: before dosing, and 0.25, 0.5, 1, 1.5, 2, 2.5, 3, 4, 6, 8, 10, 12, 16, 24, 48, 72, 96, 120, 144, and 168 hours after dosing. Urine samples for the PK analysis were collected as a single block at: (i) Day 1: before dosing (spot collection), 0 to 8, 8 to 16, and 16 to 24 hours after dosing; and (ii) Day 14: 0 to 8, 8 to 16, and 16 to 24 hours after dosing. Both plasma and urine concentrations of Compound I and its S-cis isomer were measured using validated liquid chromatography-tandem mass spectrometry (LC/MS/MS).
Data Analysis: Safety data were summarized using descriptive statistics by treatment. PK parameters for Compound I and its S-cis isomer were calculated using non-compartmental analysis using WinNonlin (Version 5.0.1 or greater; Pharsight Corporation, Mountain View, Calif.). Dose proportionality and dose independence were evaluated by visual inspection. Intra-subject variability was assessed using an ANOVA model using data from Days 10 and 14.

[1] = 25 mg QD, Day 1, urine (n = 8), geometric mean
[2] = 25 mg QD, Day 14, plasma (N = 8), geometric mean
[3] = 25 mg QD, Day 14, urine (n = 8), geometric mean
[4] = 50 mg QD, Day 1, urine (n = 8), geometric mean
[5] = 50 mg QD, Day 14, plasma (N = 8), geometric mean
[6] = 50 mg QD, Day 14, urine (n = 8), geometric mean
[7] = 100 mg QD, Day 1, urine (n = 8), geometric mean
[8] = 100 mg QD, Day 14, plasma (N = 8), geometric mean
[9] = 100 mg QD, Day 14, urine (n = 8), geometric mean
[10] = 200 mg QD, Day 1, urine (n = 8), geometric mean
[11] = 200 mg QD, Day 14, plasma (N = 8), geometric mean
[12] = 200 mg QD, Day 14, urine (n = 8), geometric mean
[13] = plasma, 25 mg, 25 mg QD, Day 1, plasma, healthy subjects (N = 8), geometric mean
[14] = plasma, 25 mg, 25 mg QD, Day 14, plasma, healthy subjects (N = 8), geometric mean
[15] = plasma, 50 mg, 50 mg QD, Day 1, plasma, healthy subjects (N = 8), geometric mean
[16] = plasma, 50 mg, 50 mg QD, Day 14, plasma, healthy subjects (N = 8), geometric mean
[17] = plasma, 100 mg, 100 mg QD, Day 1, plasma, healthy subjects (N = 8), geometric mean
[18] = plasma, 100 mg, 100 mg QD, Day 14, plasma, healthy subjects (N = 8), geometric mean
[19] = plasma, 200 mg, 200 mg QD, Day 1, plasma, healthy subjects (N = 8), geometric mean
[20] = plasma, 200 mg, 200 mg QD, Day 14, plasma, healthy subjects (N = 8), geometric mean

SMILES: O[C@H]1CC[C@H](Nc2ncc3nc(Nc4c(F)cc(F)cc4F)n([C@H]4CCOC4)c3n2)CC1 [Compound I, 4-((9-((3S)-tetrahydro-3-furanyl)-8-((2,4,6-trifluorophenyl)amino)-9H-purin-2-yl)amino)-trans-cyclohexanol]
- Ae (amount of drug excreted in urine) [1]: 1.3 mg
- fe (percentage of dose excreted in urine) [1]: 5.2%
- CL/F [2]: 95 mL/min
- RA (ratio of accumulation) [2]: 1.9
- Ae (amount of drug excreted in urine) [3]: 3.5 mg
- fe (percentage of dose excreted in urine) [3]: 14.0%
- Intra-subject CV % of AUC(0-τ) (25 mg QD): 7.0%
- Intra-subject CV % of Cmax (25 mg QD): 10.2%
- Ae (amount of drug excreted in urine) [4]: 3.0 mg
- fe (percentage of dose excreted in urine) [4]: 5.9%
- CL/F [5]: 85 mL/min
- RA (ratio of accumulation) [5]: 2.2
- Ae (amount of drug excreted in urine) [6]: 6.9 mg
- fe (percentage of dose excreted in urine) [6]: 13.9%
- Intra-subject CV % of AUC(0-τ) (50 mg QD): 8.4%
- Intra-subject CV % of Cmax (50 mg QD): 5.7%
- Ae (amount of drug excreted in urine) [7]: 5.3 mg
- fe (percentage of dose excreted in urine) [7]: 5.3%
- CL/F [8]: 130 mL/min
- RA (ratio of accumulation) [8]: 1.8
- Ae (amount of drug excreted in urine) [9]: 11.9 mg
- fe (percentage of dose excreted in urine) [9]: 11.9%
- Intra-subject CV % of AUC(0-τ) (100 mg QD): 15.7%
- Intra-subject CV % of Cmax (100 mg QD): 23.7%
- Ae (amount of drug excreted in urine) [10]: 5.0 mg
- fe (percentage of dose excreted in urine) [10]: 2.5%
- CL/F [11]: 146 mL/min
- RA (ratio of accumulation) [11]: 1.5
- Ae (amount of drug excreted in urine) [12]: 11.7 mg
- fe (percentage of dose excreted in urine) [12]: 5.8%
- Intra-subject CV % of AUC(0-τ) (200 mg QD): 14.0%
- Intra-subject CV % of Cmax (200 mg QD): 18.3%
- accumulation at steady state (Day 10 and Day 14, QD dosing): approximately 2 fold
- intra-subject variability of AUCss,(0-τ) (Days 10 and 14): less than 20%
- steady state reached (trough plasma concentrations) (QD dosing): 6 days
- Vd/F [2]: 256 L
- half-life (25 mg QD, Day 14, plasma (N = 8), geometric mean, read-out: t1/2 (converted)): 31 h
- Vd/F [5]: 193 L
- half-life (50 mg QD, Day 14, plasma (N = 8), geometric mean, read-out: t1/2 (converted)): 26 h
- Vd/F [8]: 338 L
- half-life (100 mg QD, Day 14, plasma (N = 8), geometric mean, read-out: t1/2 (converted)): 30 h
- Vd/F [11]: 328 L
- half-life (200 mg QD, Day 14, plasma (N = 8), geometric mean, read-out: t1/2 (converted)): 26 h
- AUC(0-inf) (plasma, 25 mg, 25 mg QD, Day 1, plasma (N = 8), geometric mean): 4260 ng·h/mL
- Cmax [13]: 212 ng/mL
- concentration at 24 h [13]: 55 ng/mL
- Tmax (plasma, 25 mg, 25 mg QD, Day 1, plasma, healthy subjects (N = 8), median, read-out: tmax): 2.3 h
- AUC (plasma, 25 mg, 25 mg QD, Day 1, plasma, geometric mean): 2270 ng·h/mL
- AUC(0-inf) (plasma, 25 mg, 25 mg QD, Day 14, plasma (N = 8), geometric mean): 10200 ng·h/mL
- Cmax [14]: 328 ng/mL
- concentration at 24 h [14]: 130 ng/mL
- Tmax (plasma, 25 mg, 25 mg QD, Day 14, plasma, healthy subjects (N = 8), median, read-out: tmax): 2 h
- AUC (plasma, 25 mg, 25 mg QD, Day 14, plasma, geometric mean): 4400 ng·h/mL
- AUC(0-inf) (plasma, 50 mg, 50 mg QD, Day 1, plasma (N = 8), geometric mean): 7750 ng·h/mL
- Cmax [15]: 406 ng/mL
- concentration at 24 h [15]: 125 ng/mL
- Tmax (plasma, 50 mg, 50 mg QD, Day 1, plasma, healthy subjects (N = 8), median, read-out: tmax): 2.3 h
- AUC (plasma, 50 mg, 50 mg QD, Day 1, plasma, geometric mean): 4560 ng·h/mL
- AUC(0-inf) (plasma, 50 mg, 50 mg QD, Day 14, plasma (N = 8), geometric mean): 21300 ng·h/mL
- Cmax [16]: 740 ng/mL
- concentration at 24 h [16]: 282 ng/mL
- Tmax (plasma, 50 mg, 50 mg QD, Day 14, plasma, healthy subjects (N = 8), median, read-out: tmax): 2 h
- AUC (plasma, 50 mg, 50 mg QD, Day 14, plasma, geometric mean): 9810 ng·h/mL
- AUC(0-inf) (plasma, 100 mg, 100 mg QD, Day 1, plasma (N = 8), geometric mean): 12200 ng·h/mL
- Cmax [17]: 637 ng/mL
- concentration at 24 h [17]: 183 ng/mL
- Tmax (plasma, 100 mg, 100 mg QD, Day 1, plasma, healthy subjects (N = 8), median, read-out: tmax): 2 h
- AUC (plasma, 100 mg, 100 mg QD, Day 1, plasma, geometric mean): 7300 ng·h/mL
- AUC(0-inf) (plasma, 100 mg, 100 mg QD, Day 14, plasma (N = 8), geometric mean): 31600 ng·h/mL
- Cmax [18]: 880 ng/mL
- concentration at 24 h [18]: 400 ng/mL
- Tmax (plasma, 100 mg, 100 mg QD, Day 14, plasma, healthy subjects (N = 8), median, read-out: tmax): 1.8 h
- AUC (plasma, 100 mg, 100 mg QD, Day 14, plasma, geometric mean): 12800 ng·h/mL
- AUC(0-inf) (plasma, 200 mg, 200 mg QD, Day 1, plasma (N = 8), geometric mean): 27000 ng·h/mL
- Cmax [19]: 1440 ng/mL
- concentration at 24 h [19]: 375 ng/mL
- Tmax (plasma, 200 mg, 200 mg QD, Day 1, plasma, healthy subjects (N = 8), median, read-out: tmax): 1.8 h
- AUC (plasma, 200 mg, 200 mg QD, Day 1, plasma, geometric mean): 15100 ng·h/mL
- AUC(0-inf) (plasma, 200 mg, 200 mg QD, Day 14, plasma (N = 8), geometric mean): 48400 ng·h/mL
- Cmax [20]: 1740 ng/mL
- concentration at 24 h [20]: 643 ng/mL
- Tmax (plasma, 200 mg, 200 mg QD, Day 14, plasma, healthy subjects (N = 8), median, read-out: tmax): 1.8 h
- AUC (plasma, 200 mg, 200 mg QD, Day 14, plasma, geometric mean): 22800 ng·h/mL
- half-life (plasma, 25-200 mg QD for 14 days, read-out: mean terminal half-life (t1/2)): 25 to 31 h
- Tmax (plasma, 25-200 mg QD for 14 days, read-out: median tmax): 1 to 2 h
- CL renal (25 mg, 25 mg QD, Day 1, urine (n = 8), geometric mean): 9.5 mL/min
- CL renal at 14 days (25 mg, 25 mg QD, Day 14, urine (n = 8), geometric mean): 13.3 mL/min
- CL renal (50 mg, 50 mg QD, Day 1, urine (n = 8), geometric mean): 10.9 mL/min
- CL renal (50 mg, 50 mg QD, Day 14, urine (n = 8), geometric mean): 11.8 mL/min
- CL renal (100 mg, 100 mg QD, Day 1, urine (n = 8), geometric mean): 12 mL/min
- CL renal (100 mg, 100 mg QD, Day 14, urine (n = 8), geometric mean): 15.4 mL/min
- CL renal (200 mg, 200 mg QD, Day 1, urine (n = 8), geometric mean): 5.5 mL/min
- CL renal at 14 days (200 mg, 200 mg QD, Day 14, urine (n = 8), geometric mean): 8.5 mL/min
